{"source": "patent US9492471B2", "about": "“Methods of treating a disease or disorder associated with Bruton'S Tyrosine Kinase” (Celgene Avilomics Research, Inc., priority 2013, dated 2016)", "assay_in_all_cases": "HotSpot kinase profiling", "type_in_all_cases": "biochemical", "key": {"EPHB2": {"biological_target": "T1, EPHB2 (Homo sapiens, UniProt P29323)", "T1 construct": "purchased Reaction Biology Corp", "T1 sequence (P29323 19-1055)": "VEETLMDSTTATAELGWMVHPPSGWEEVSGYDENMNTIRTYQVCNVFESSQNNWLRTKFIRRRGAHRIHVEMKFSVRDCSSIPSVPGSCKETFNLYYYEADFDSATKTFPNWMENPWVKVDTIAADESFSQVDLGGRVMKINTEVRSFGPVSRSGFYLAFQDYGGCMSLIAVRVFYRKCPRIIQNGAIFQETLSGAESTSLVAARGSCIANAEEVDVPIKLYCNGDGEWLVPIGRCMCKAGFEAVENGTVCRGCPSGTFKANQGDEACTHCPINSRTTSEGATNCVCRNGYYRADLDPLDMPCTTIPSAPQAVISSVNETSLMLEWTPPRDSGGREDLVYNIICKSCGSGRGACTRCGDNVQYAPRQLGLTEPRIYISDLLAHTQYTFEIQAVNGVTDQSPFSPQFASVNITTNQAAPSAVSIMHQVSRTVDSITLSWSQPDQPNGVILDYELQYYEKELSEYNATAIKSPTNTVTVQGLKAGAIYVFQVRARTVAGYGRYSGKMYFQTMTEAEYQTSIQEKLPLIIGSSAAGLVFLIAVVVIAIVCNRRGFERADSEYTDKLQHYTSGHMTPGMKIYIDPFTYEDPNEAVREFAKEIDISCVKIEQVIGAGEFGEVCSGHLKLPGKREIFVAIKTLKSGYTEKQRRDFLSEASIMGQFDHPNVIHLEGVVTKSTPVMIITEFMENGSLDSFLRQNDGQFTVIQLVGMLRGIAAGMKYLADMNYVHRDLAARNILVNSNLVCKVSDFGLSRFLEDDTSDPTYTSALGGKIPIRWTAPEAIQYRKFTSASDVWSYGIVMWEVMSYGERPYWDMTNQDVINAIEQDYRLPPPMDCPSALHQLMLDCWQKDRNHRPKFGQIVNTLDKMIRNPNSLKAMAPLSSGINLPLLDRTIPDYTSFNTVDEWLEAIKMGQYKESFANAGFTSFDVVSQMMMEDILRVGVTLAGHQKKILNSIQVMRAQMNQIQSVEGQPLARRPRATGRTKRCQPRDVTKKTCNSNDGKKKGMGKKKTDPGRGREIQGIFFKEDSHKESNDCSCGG", "summary_of_the_method": "(§1)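 Percent inhibition, averaged when run more than once and referenced to a DMSO negative control, came from a radioactive filter-binding readout on P81 paper. Reactions of kinase with freshly made substrate and cofactors ran for 2 h at room temperature.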"}, "TRKC": {"biological_target": "T2, TRKC (Homo sapiens, UniProt Q16288)", "T2 construct": "purchased Reaction Biology Corp", "T2 sequence (Q16288 32-839)": "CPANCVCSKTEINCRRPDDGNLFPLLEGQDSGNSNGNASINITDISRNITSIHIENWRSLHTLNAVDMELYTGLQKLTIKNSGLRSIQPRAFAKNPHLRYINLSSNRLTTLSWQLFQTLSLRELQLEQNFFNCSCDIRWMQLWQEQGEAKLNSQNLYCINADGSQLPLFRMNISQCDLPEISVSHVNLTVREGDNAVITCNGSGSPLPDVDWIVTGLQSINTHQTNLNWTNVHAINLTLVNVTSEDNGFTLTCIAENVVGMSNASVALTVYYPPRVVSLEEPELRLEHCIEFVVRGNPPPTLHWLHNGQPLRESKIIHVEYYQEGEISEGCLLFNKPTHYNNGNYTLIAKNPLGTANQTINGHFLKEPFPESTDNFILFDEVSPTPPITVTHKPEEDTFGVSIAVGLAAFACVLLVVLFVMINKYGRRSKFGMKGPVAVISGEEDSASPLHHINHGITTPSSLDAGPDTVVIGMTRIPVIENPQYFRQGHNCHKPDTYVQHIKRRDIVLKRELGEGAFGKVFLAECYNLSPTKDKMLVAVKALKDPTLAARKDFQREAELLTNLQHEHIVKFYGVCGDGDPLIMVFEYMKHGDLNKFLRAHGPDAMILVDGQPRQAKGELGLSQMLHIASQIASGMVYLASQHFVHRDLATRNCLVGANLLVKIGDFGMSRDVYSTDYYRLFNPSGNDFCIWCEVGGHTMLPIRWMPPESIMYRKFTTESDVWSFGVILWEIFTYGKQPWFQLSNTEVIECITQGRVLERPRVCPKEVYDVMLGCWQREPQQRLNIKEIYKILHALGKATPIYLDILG", "summary_of_the_method": "as §1"}, "TSSK3/STK22C": {"biological_target": "T3, TSSK3/STK22C (Homo sapiens, UniProt Q96PN8)", "T3 construct": "purchased Reaction Biology Corp", "T3 sequence (Q96PN8 1-268)": "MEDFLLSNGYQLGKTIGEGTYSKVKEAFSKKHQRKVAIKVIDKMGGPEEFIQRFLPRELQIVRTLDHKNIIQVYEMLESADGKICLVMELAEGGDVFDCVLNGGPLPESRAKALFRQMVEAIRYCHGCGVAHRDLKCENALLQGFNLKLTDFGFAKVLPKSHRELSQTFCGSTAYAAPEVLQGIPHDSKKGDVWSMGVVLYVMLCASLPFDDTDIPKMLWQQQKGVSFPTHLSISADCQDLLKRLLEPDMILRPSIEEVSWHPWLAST", "summary_of_the_method": "as §1"}, "SGK2": {"biological_target": "T4, SGK2 (Homo sapiens, UniProt Q9HBY8)", "T4 construct": "purchased Reaction Biology Corp", "T4 sequence (Q9HBY8 1-367)": "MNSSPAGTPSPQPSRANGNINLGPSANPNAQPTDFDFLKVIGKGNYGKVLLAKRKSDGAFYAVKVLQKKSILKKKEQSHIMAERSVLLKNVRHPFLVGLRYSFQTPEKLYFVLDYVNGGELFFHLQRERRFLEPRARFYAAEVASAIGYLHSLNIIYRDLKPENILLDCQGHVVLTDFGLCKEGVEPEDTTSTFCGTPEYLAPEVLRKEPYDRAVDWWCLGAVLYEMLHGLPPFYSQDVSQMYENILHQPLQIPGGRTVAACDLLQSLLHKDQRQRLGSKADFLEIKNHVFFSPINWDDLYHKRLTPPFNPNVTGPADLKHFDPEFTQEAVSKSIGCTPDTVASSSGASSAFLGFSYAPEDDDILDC", "summary_of_the_method": "as §1"}, "FGFR3": {"biological_target": "T5, FGFR3 (Homo sapiens, UniProt P22607)", "T5 construct": "purchased Reaction Biology Corp", "T5 sequence (P22607 23-806)": "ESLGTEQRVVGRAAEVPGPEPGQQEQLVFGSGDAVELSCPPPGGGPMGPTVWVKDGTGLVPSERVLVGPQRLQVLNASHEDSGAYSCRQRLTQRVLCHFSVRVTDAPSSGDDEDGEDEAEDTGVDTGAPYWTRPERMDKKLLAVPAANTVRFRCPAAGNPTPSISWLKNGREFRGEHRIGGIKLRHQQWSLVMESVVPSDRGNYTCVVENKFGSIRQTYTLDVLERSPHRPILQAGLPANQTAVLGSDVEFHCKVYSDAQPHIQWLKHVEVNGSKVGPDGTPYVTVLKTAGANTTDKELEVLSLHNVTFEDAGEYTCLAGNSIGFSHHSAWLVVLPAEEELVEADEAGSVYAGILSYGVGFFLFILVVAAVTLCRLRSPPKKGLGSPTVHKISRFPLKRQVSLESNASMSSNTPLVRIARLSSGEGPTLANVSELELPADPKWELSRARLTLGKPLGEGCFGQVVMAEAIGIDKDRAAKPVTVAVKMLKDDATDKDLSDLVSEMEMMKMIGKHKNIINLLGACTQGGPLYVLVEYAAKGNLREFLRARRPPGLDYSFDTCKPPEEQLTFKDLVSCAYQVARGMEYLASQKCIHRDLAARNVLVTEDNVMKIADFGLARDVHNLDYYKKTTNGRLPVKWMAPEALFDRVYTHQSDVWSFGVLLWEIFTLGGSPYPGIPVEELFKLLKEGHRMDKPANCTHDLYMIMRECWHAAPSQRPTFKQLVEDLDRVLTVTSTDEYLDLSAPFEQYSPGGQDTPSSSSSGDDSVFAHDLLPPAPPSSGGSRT", "summary_of_the_method": "as §1"}, "GRK4": {"biological_target": "T6, GRK4 (Homo sapiens, UniProt P32298)", "T6 construct": "purchased Reaction Biology Corp", "T6 sequence (P32298 whole entry)": "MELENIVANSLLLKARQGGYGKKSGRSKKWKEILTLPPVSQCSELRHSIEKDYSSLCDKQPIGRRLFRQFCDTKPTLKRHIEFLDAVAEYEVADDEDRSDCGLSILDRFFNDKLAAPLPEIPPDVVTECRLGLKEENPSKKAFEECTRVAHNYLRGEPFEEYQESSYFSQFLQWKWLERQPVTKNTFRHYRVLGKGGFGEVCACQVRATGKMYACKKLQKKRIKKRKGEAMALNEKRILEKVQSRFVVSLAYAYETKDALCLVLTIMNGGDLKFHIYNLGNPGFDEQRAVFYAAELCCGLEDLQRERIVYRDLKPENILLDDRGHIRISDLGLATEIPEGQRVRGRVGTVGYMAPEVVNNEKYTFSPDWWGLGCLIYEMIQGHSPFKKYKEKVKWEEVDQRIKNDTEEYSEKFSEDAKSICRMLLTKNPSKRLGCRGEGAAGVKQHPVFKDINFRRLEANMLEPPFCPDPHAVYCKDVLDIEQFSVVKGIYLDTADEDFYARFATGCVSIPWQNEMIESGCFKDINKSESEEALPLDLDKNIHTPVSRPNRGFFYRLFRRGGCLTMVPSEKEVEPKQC", "summary_of_the_method": "as §1"}, "[1]": {"conditions": "read-out: % Enzyme Activity (relative to DMSO controls) Run 1"}, "[2]": {"conditions": "read-out: % Enzyme Activity (relative to DMSO controls) Run 2"}}, "note": "Read-outs that look alike come from different tables or passages of the source."}
{"smiles": "C=CC(=O)Nc1cccc(Nc2nc(Nc3ccc(OCCOC)c(F)c3)ncc2F)c1", "note": "[Compound 2]", "values": [{"measurement": "inhibition at 3 µM", "setting": "EPHB2", "value": -5.45, "unit": "%"}, {"measurement": "remaining activity at 3 µM", "setting": "EPHB2; [1]", "value": 104, "unit": "%"}, {"measurement": "remaining activity at 3 µM", "setting": "EPHB2; [2]", "value": 107, "unit": "%"}, {"measurement": "inhibition at 3 µM", "setting": "TRKC", "value": 66.3, "unit": "%"}, {"measurement": "remaining activity at 3 µM", "setting": "TRKC; [1]", "value": 35.1, "unit": "%"}, {"measurement": "remaining activity at 3 µM", "setting": "TRKC; [2]", "value": 32.3, "unit": "%"}, {"measurement": "inhibition at 3 µM", "setting": "TSSK3/STK22C", "value": -32.6, "unit": "%"}, {"measurement": "remaining activity at 3 µM", "setting": "TSSK3/STK22C; [1]", "value": 133, "unit": "%"}, {"measurement": "remaining activity at 3 µM", "setting": "TSSK3/STK22C; [2]", "value": 133, "unit": "%"}, {"measurement": "inhibition at 3 µM", "setting": "SGK2", "value": 26, "unit": "%"}, {"measurement": "remaining activity at 3 µM", "setting": "SGK2; [1]", "value": 71.4, "unit": "%"}, {"measurement": "remaining activity at 3 µM", "setting": "SGK2; [2]", "value": 76.6, "unit": "%"}, {"measurement": "inhibition at 3 µM", "setting": "FGFR3", "value": 68, "unit": "%"}, {"measurement": "remaining activity at 3 µM", "setting": "FGFR3; [1]", "value": 32.1, "unit": "%"}, {"measurement": "remaining activity at 3 µM", "setting": "FGFR3; [2]", "value": 31.8, "unit": "%"}, {"measurement": "inhibition at 3 µM", "setting": "GRK4", "value": -6.61, "unit": "%"}, {"measurement": "remaining activity at 3 µM", "setting": "GRK4; [1]", "value": 107, "unit": "%"}, {"measurement": "remaining activity at 3 µM", "setting": "GRK4; [2]", "value": 106, "unit": "%"}]}
